Measurements: patent US12297163B2, “Glycerol derivative, preparation method therefor, and immunomodulator comprising same as effective ingredient” (ENZYCHEM LIFESCIENCES CORPORATION, priority 2018, dated 2025)

Key:
STAT6 = assay: IL-4-induced STAT6 activity, pGL4-STAT6 luciferase reporter in A549 cells; type: cell-based
Protocol: In DMEM (Dulbecco Modified Eagle Medium, Hyclone, Thermo Scientific) medium to which 10% Fetal Bovine Serum was added, A549 cells were subcultured at a concentration of 1×10^5 cells/ml, and the cells were maintained in a 5% CO2 humidified incubator at 37° C., and cultured. The cultured A549 cells were inoculated into a 48 well plate by 1×10^5 cells/ml and stabilized for 18 hours. Thereafter, pGL4-STAT6 reporter vector containing a STAT6 binding promoter portion was mixed with Attractene to induce complex formation at room temperature for 15 minutes. This complex was treated with the cells and then further incubated for 24 hours. Thereafter, the culture solution was treated with a glycerol derivative compounds of the type shown in Table 8 and Table 9 below for 1 hour in the culture solution, and then IL-4 (2 ng/ml or 10 ng/ml) was further incubated for 20 hours for STAT6 activity. Thereafter, the culture supernatant was removed for each well, and the remaining cells were lysed with a cell lysis buffer, and then cell lysate was recovered. 90 μl of luciferase reagent was mixed with 10 μl of the recovered cell lysate, and the degree of fluorescence was confirmed using a luminometer.

CXCL8 (IL-8) = CXCL8 (IL-8) expression in Gemcitabine-stimulated THP-1 cells (ELISA); type: cell-based, human
Protocol: Thereafter 1.5 ml of the culture supernatant was collected for each well and centrifuged (at 3000 rpm, 5 minutes) to recover the supernatant.

HL-60 cells = assay: Migration of HL-60 cell line using Transwell; type: cell-based, human
Protocol: Then, the culture solution was treated with a glycerol derivative compounds of the type shown in Table 7 below for 1 hour and then was treated with Gemcitabine (2 μg/ml) of a cell stimulator, and subsequent further incubation was conducted for 24 hours. Thereafter 1.5 ml of the culture supernatant was collected for each well and centrifuged (at 3000 rpm, 5 minutes) to recover the supernatant. […] The day before Transmigration assay was carried out, a 1× Lamin I solution was treated in the upper Invasion Chamber and coated. […] Thereafter the upper chamber was removed, and the cells were attached to the bottom of the lower chamber by a centrifuge, and then the supernatant was removed. Cell dissociation/Calcein-AM solution was added and reacted for 1 hour. Then, the value obtained using a fluorescence spectroscopy was calculated by converting the number of cells.

IL-6 = assay: LPS-induced IL-6 secretion in RAW264.7 cells (ELISA); type: cell-based, mouse; settings: for IL-6 concentration (average ± deviation): then LPS 1 μg/ml, 24 hours
Protocol: In DMEM (Hyclone, Thermo Scientific) medium to which 10% Fetal Bovine Serum was added, RAW264.7 cells, a mouse macrophage family, were suspended at a concentration of 1×10^5 cells/ml, and the cells were maintained in a 5% CO2 humidified incubator at 37° C., and cultured. The cultured RAW264.7 cells were inoculated into a 48 well plate by 5×10^4 cells/ml and stabilized for 15 hours. Then, the culture solution was treated with a glycerol derivative compounds of the type shown in Table 2 and 3 below for 1 hour and then was treated with 1 μg/ml of Lipopolysaccaride (LPS) of a cell stimulator, and subsequent further incubation was conducted for 24 hours. Thereafter 0.5 ml of the culture supernatant was collected for each well and centrifuged (at 3000 rpm, 5 minutes) to recover the supernatant. The IL-6 level in the recovered supernatant was measured according to the manual provided by the Mouse IL-6 ELISA set (BD Biosciences). The day before ELISA was carried out, the IL-6 capture antibody was diluted in phosphate buffered saline, coated on a microwell, and then stored at 4° C. overnight. Each well was washed three times with a washing buffer solution and then blocked with 2% Bovine Serum Albumin (BSA) for 1 hour at room temperature. After washing with buffer solution three times, 100 μl of sample was dispensed into each well and left at room temperature for 2 hours. Detection antibody which was washed 3 times with washing buffer solution and diluted was dispensed into each well and allowed to react at room temperature for 1 hour and left at room temperature for 1 hour. Thereafter, the secondary HRP conjugated antibody was reacted at room temperature for 30 minutes, washed three times with a washing buffer solution, and treated with 50 μl of stop solution for each well, and then the optical density was measured at 450 nm with an ELISA microplate leader.

STAT3 [1] = assay: IL-6-induced STAT3 activity, SEAP expression in HEK-Blue IL-6 cells; type: cell-based; settings: for STAT3 activity SEAP expression(%) (average ± deviation): negative control = 100
Protocol: Two experiments were conducted as a method of confirming STAT3 activity. First, HEK-Blue™ IL-6 cells were used to confirm the degree of activity by STAT3-induced SEAP (secreted embryonic alkaline phosphatase) expression. Second, this is a method to check the degree of STAT3 activity by injecting the pGL4.47 [luc2P/SIE/Hygro] vector containing the sis-inducible element that binds to STAT3 into RAW264.7 cells. Table 4 below confirmed the STAT3 activity inhibitory ability of the derivative compound of the present invention using the first method.
In DMEM (Hyclone, Thermo Scientific) medium to which 10% Fetal Bovine Serum was added, HEK-Blue™ IL-6 cells were cultured at a concentration of 1×10^5 cells/ml, and the cells were maintained in a 5% CO2 humidified incubator at 37° C., and cultured. The cultured HEK-Blue™ IL-6 cells were inoculated by 1×10^5 cells/ml, and treat with a glycerol derivative compounds of the type shown in Table 3 below in the culture solution for 1 hour, and then IL-6 (5 ng/ml) was further incubated for 24 hours for STAT3 activity. Thereafter, the culture supernatant was collected for each well and centrifuged (at 3000 rpm, 5 minutes) to recover the supernatant. The SEAP expression level in the recovered supernatant was mixed with Quanti blue reagent and the supernatant at a ratio of 1:10 and left at 37° C. for about 30 minutes. Then, the SEAP concentration was confirmed at 650 nm wavelength using a spectrophotometer, and the results thereof are shown in Table 4 below.

IL-4 = assay: PKC activator-induced IL-4 secretion in EL-4 cells (ELISA); type: cell-based, mouse; settings: Table 11, sample 100 μg/ml for 2 hours, then PKC activator, 18 hours
Protocol: Thereafter 0.5 ml of the culture supernatant was collected for each well and centrifuged (at 3000 rpm, 5 minutes) to recover the supernatant. […] Thereafter, the secondary HRP conjugated antibody was reacted at room temperature for 30 minutes, washed three times with a washing buffer solution, and treated with 50 μl of stop solution for each well, and then the optical density was measured at 450 nm with an ELISA microplate leader.

STAT3 [2] = assay: STAT3 activity, pGL4.47 [luc2P/SIE/Hygro] luciferase reporter in RAW264.7 cells; type: cell-based, mouse
Protocol: Thereafter, the culture supernatant was removed for each well, and the remaining cells were lysed with a cell lysis buffer, and then cell lysate was recovered. 90 μl of luciferase reagent was mixed with 10 μl of the recovered cell lysate, and the degree of fluorescence was confirmed using a luminometer.

CCCCC/C=C\C/C=C\CCCCCCCC(=O)OC(COC(C)=O)COC(=O)CCCCCCCCCCCCCCC (stereo not drawn) [EC-18, 1-palmitoyl-2-linoleoyl-3-acetylglycerol]
reduction of STAT6 activity (STAT6; IL-4-treated): about 50% | STAT6 activity_Luciferase activity (average ± deviation) (STAT6; Table 9, sample 100 μg/ml for 1 hour, then IL-4 10 ng/ml, 20 hours): 1281.5 ± 26.1 | reduction of CXCL8 expression (CXCL8 (IL-8)): about 20% | reduction of HL-60 cell migration, result in words (HL-60 cells; Transwell, comparison with negative control group or EC-18 (PLAG)): reduced to a degree similar to that of the negative control group | decrease of IL-6 expression/secretion compared to the LPS-treated group (IL-6; LPS-stimulated): about 30% | IL-6 concentration (average ± deviation) (IL-6; Table 2, sample 100 μg/ml for 1 hour): 0.194 ± 0.011 ng/mL | IL-6 concentration (average ± deviation) (IL-6; Table 3, sample 100 μg/ml for 1 hour): 1.159 ± 0.036 ng/mL | decrease of STAT3 activity compared to the IL-6-treated group (STAT3 [1]): about 25% | STAT3 activity SEAP expression(%) (average ± deviation) (STAT3 [1]; sample 100 μg/ml for 1 hour, then IL-6 5 ng/ml, 24 hours): 173.0 ± 7.9% | IL-4 concentration (average ± deviation) (IL-4): 189.8 ± 38.5 pg/µL | decrease of STAT3 activity (STAT3 [2]; LPS-treated): about 50% | STAT3 activity_Luciferase activity (average ± deviation) (STAT3 [2]; sample 100 μg/ml for 1 hour, then LPS 1 μg/ml, 18 hours, negative control = 100.00): 393.64 ± 46.12

Nc1ccn([C@@H]2O[C@H](CO)[C@@H](O)C2(F)F)c(=O)n1 [Gemcitabine]
increase of neutrophil cell migration compared to the negative control group (HL-60 cells; Gemcitabine-treated THP-1 cells): increased by about twice

IL-6: IL-6 cytokine used to induce STAT3 activity
STAT3 activity SEAP expression(%) (average ± deviation) (STAT3 [1]; IL-6 5 ng/ml alone): 228.8 ± 17.0%

B1: IL-4: IL-4 used to induce STAT6 activity in A549 cells (protein, UniProt P05112 25-153, looked up)
Interleukin-4: HKCDITLQEIIKTLNSLTEQKTLCTELTVTDIFAASKNTTEKETFCRAATVLRQFYSHHEKDTRCLGATAQQFHRHKQLIRFLKRLDRNLWGLAGLNSCPVKEANQSTLENFLERLKTIMREKYSKCSS
STAT6 activity_Luciferase activity (average ± deviation) (STAT6; Table 9, IL-4 alone, concentration printed 10): 2134.5 ± 17.6
